{"source": "PubChem BioAssay (NCI)", "assay_in_all_cases": "growth of human tumour cells (NCI), 48 h", "key": {"A498 renal": {"test_system": "A498 renal"}, "A549 NSCLC": {"test_system": "A549 NSCLC"}, "ACHN renal": {"test_system": "ACHN renal"}, "BT-549 breast": {"test_system": "BT-549 breast"}, "CAKI-1 renal": {"test_system": "CAKI-1 renal"}, "CCRF-CEM leukemia": {"test_system": "CCRF-CEM leukemia"}, "COLO 205 colon": {"test_system": "COLO 205 colon"}, "DU-145 prostate": {"test_system": "DU-145 prostate"}, "EKVX NSCLC": {"test_system": "EKVX NSCLC"}, "HCT-116 colon": {"test_system": "HCT-116 colon"}, "HCT-15 colon": {"test_system": "HCT-15 colon"}, "HL-60(TB) leukemia": {"test_system": "HL-60(TB) leukemia"}, "HOP-62 NSCLC": {"test_system": "HOP-62 NSCLC"}, "HOP-92 NSCLC": {"test_system": "HOP-92 NSCLC"}, "HS 578T breast": {"test_system": "HS 578T breast"}, "HT29 colon": {"test_system": "HT29 colon"}, "IGROV1 ovarian": {"test_system": "IGROV1 ovarian"}, "K-562 leukemia": {"test_system": "K-562 leukemia"}, "KM12 colon": {"test_system": "KM12 colon"}, "LOX IMVI melanoma": {"test_system": "LOX IMVI melanoma"}, "M14 melanoma": {"test_system": "M14 melanoma"}, "MALME-3M melanoma": {"test_system": "MALME-3M melanoma"}, "MCF7 breast": {"test_system": "MCF7 breast"}, "MDA-MB-231 breast": {"test_system": "MDA-MB-231 breast"}, "MDA-MB-435": {"test_system": "MDA-MB-435"}, "MDA-N": {"test_system": "MDA-N"}, "MOLT-4 leukemia": {"test_system": "MOLT-4 leukemia"}, "NCI-H226 lung": {"test_system": "NCI-H226 lung"}, "NCI-H23 lung": {"test_system": "NCI-H23 lung"}, "NCI-H460 lung": {"test_system": "NCI-H460 lung"}, "NCI-H522 lung": {"test_system": "NCI-H522 lung"}, "NCI/ADR-RES ovarian": {"test_system": "NCI/ADR-RES ovarian"}, "OVCAR-3 ovarian": {"test_system": "OVCAR-3 ovarian"}, "OVCAR-4 ovarian": {"test_system": "OVCAR-4 ovarian"}, "OVCAR-5 ovarian": {"test_system": "OVCAR-5 ovarian"}, "OVCAR-8 ovarian": {"test_system": "OVCAR-8 ovarian"}, "PC-3 prostate": {"test_system": "PC-3 prostate"}, "RPMI-8226 leukemia": {"test_system": "RPMI-8226 leukemia"}, "RXF 393 renal": {"test_system": "RXF 393 renal"}, "SF-268 CNS": {"test_system": "SF-268 CNS"}, "SF-295 CNS": {"test_system": "SF-295 CNS"}, "SF-539 CNS": {"test_system": "SF-539 CNS"}, "SK-MEL-2 melanoma": {"test_system": "SK-MEL-2 melanoma"}, "SK-MEL-28 melanoma": {"test_system": "SK-MEL-28 melanoma"}, "SK-MEL-5 melanoma": {"test_system": "SK-MEL-5 melanoma"}, "SN12C renal": {"test_system": "SN12C renal"}, "SNB-19 CNS": {"test_system": "SNB-19 CNS"}, "SNB-75 CNS": {"test_system": "SNB-75 CNS"}, "SR leukemia": {"test_system": "SR leukemia"}, "SW-620 colon": {"test_system": "SW-620 colon"}, "T-47D breast": {"test_system": "T-47D breast"}, "TK-10 renal": {"test_system": "TK-10 renal"}, "U251 CNS": {"test_system": "U251 CNS"}, "UACC-257 melanoma": {"test_system": "UACC-257 melanoma"}, "UACC-62 melanoma": {"test_system": "UACC-62 melanoma"}, "UO-31 renal": {"test_system": "UO-31 renal"}}, "note": "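Five compound concentrations were applied to cells in 96-well plates for 48 hours; endpoints were derived by simple linear interpolation of the resulting dose-response curve. At the TGI there is no net growth.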", "data": [{"smiles": "COc1nc2ccc(Cl)c(C(O)c3ccccc3)c2nc1OC", "note": "(stereo unspecified)", "values": [{"measurement": "TGI", "setting": "A498 renal", "result": 37.1, "unit": "µM"}, {"measurement": "TGI", "setting": "A549 NSCLC", "result": 78.6, "unit": "µM"}, {"measurement": "TGI", "setting": "ACHN renal", "result": "> 100", "unit": "µM"}, {"measurement": "TGI", "setting": "BT-549 breast", "result": 80.7, "unit": "µM"}, {"measurement": "TGI", "setting": "CAKI-1 renal", "result": 45.3, "unit": "µM"}, {"measurement": "TGI", "setting": "CCRF-CEM leukemia", "result": 29.5, "unit": "µM"}, {"measurement": "TGI", "setting": "COLO 205 colon", "result": 32.5, "unit": "µM"}, {"measurement": "TGI", "setting": "DU-145 prostate", "result": "> 100", "unit": "µM"}, {"measurement": "TGI", "setting": "EKVX NSCLC", "result": "> 100", "unit": "µM"}, {"measurement": "TGI", "setting": "HCT-116 colon", "result": 32.7, "unit": "µM"}, {"measurement": "TGI", "setting": "HCT-15 colon", "result": 50.1, "unit": "µM"}, {"measurement": "TGI", "setting": "HL-60(TB) leukemia", "result": 52.5, "unit": "µM"}, {"measurement": "TGI", "setting": "HOP-62 NSCLC", "result": 38.6, "unit": "µM"}, {"measurement": "TGI", "setting": "HOP-92 NSCLC", "result": 60.6, "unit": "µM"}, {"measurement": "TGI", "setting": "HS 578T breast", "result": 38.9, "unit": "µM"}, {"measurement": "TGI", "setting": "HT29 colon", "result": "> 100", "unit": "µM"}, {"measurement": "TGI", "setting": "IGROV1 ovarian", "result": "> 100", "unit": "µM"}, {"measurement": "TGI", "setting": "K-562 leukemia", "result": "> 100", "unit": "µM"}, {"measurement": "TGI", "setting": "KM12 colon", "result": "> 100", "unit": "µM"}, {"measurement": "TGI", "setting": "LOX IMVI melanoma", "result": 36.5, "unit": "µM"}, {"measurement": "TGI", "setting": "M14 melanoma", "result": 38.8, "unit": "µM"}, {"measurement": "TGI", "setting": "MALME-3M melanoma", "result": "> 100", "unit": "µM"}, {"measurement": "TGI", "setting": "MCF7 breast", "result": 87.6, "unit": "µM"}, {"measurement": "TGI", "setting": "MDA-MB-231 breast", "result": 39.9, "unit": "µM"}, {"measurement": "TGI", "setting": "MDA-MB-435", "result": 42.8, "unit": "µM"}, {"measurement": "TGI", "setting": "MDA-N", "result": 54.8, "unit": "µM"}, {"measurement": "TGI", "setting": "MOLT-4 leukemia", "result": 46.4, "unit": "µM"}, {"measurement": "TGI", "setting": "NCI-H226 lung", "result": 54.7, "unit": "µM"}, {"measurement": "TGI", "setting": "NCI-H23 lung", "result": 61.2, "unit": "µM"}, {"measurement": "TGI", "setting": "NCI-H460 lung", "result": "> 100", "unit": "µM"}, {"measurement": "TGI", "setting": "NCI-H522 lung", "result": 37.8, "unit": "µM"}, {"measurement": "TGI", "setting": "NCI/ADR-RES ovarian", "result": 63.4, "unit": "µM"}, {"measurement": "TGI", "setting": "OVCAR-3 ovarian", "result": 69.6, "unit": "µM"}, {"measurement": "TGI", "setting": "OVCAR-4 ovarian", "result": "> 100", "unit": "µM"}, {"measurement": "TGI", "setting": "OVCAR-5 ovarian", "result": "> 100", "unit": "µM"}, {"measurement": "TGI", "setting": "OVCAR-8 ovarian", "result": "> 100", "unit": "µM"}, {"measurement": "TGI", "setting": "PC-3 prostate", "result": "> 100", "unit": "µM"}, {"measurement": "TGI", "setting": "RPMI-8226 leukemia", "result": 34.1, "unit": "µM"}, {"measurement": "TGI", "setting": "RXF 393 renal", "result": 41.3, "unit": "µM"}, {"measurement": "TGI", "setting": "SF-268 CNS", "result": 84.5, "unit": "µM"}, {"measurement": "TGI", "setting": "SF-295 CNS", "result": 44.8, "unit": "µM"}, {"measurement": "TGI", "setting": "SF-539 CNS", "result": 32.8, "unit": "µM"}, {"measurement": "TGI", "setting": "SK-MEL-2 melanoma", "result": 45, "unit": "µM"}, {"measurement": "TGI", "setting": "SK-MEL-28 melanoma", "result": "> 100", "unit": "µM"}, {"measurement": "TGI", "setting": "SK-MEL-5 melanoma", "result": 30.3, "unit": "µM"}, {"measurement": "TGI", "setting": "SN12C renal", "result": 40.3, "unit": "µM"}, {"measurement": "TGI", "setting": "SNB-19 CNS", "result": "> 100", "unit": "µM"}, {"measurement": "TGI", "setting": "SNB-75 CNS", "result": "> 100", "unit": "µM"}, {"measurement": "TGI", "setting": "SR leukemia", "result": 27.3, "unit": "µM"}, {"measurement": "TGI", "setting": "SW-620 colon", "result": 82.7, "unit": "µM"}, {"measurement": "TGI", "setting": "T-47D breast", "result": 99.4, "unit": "µM"}, {"measurement": "TGI", "setting": "TK-10 renal", "result": "> 100", "unit": "µM"}, {"measurement": "TGI", "setting": "U251 CNS", "result": 88, "unit": "µM"}, {"measurement": "TGI", "setting": "UACC-257 melanoma", "result": 59.2, "unit": "µM"}, {"measurement": "TGI", "setting": "UACC-62 melanoma", "result": 96.3, "unit": "µM"}, {"measurement": "TGI", "setting": "UO-31 renal", "result": "> 100", "unit": "µM"}]}]}
